Values quoted from earlier work, collected in US9034830B2, “Methods and compositions for sustained delivery of drugs” (INTRATUS, INC., priority 2009, dated 2015).

Test system: patients

Brc1c(NC2=NCCN2)ccc2nccnc12 [Brimonidine]
more patients who had to discontinue due to lack of clinical effect (0.2% eye drop, FDA clinical data): 30% | drop in intraocular pressure (eye drop, dosed at least two times a day): ~24% | patients with side-effects (itching, redness, intolerance) necessitating stoppage of the drug (eye drop, per FDA data): up to 20%
